Test results published in patent US20220160714A1, “METHODS FOR TREATING COLORECTAL CANCER” (ICAHN SCHOOL OF MEDICINE AT MOUNT SINAI, priority 2019, published 2022).
Counter-ions that a name gives are not always drawn.

System: patient's personalized Drosophila model 006.1
Assay: Trametinib combination drug screen (Table 4B, experimental pupae numbers)
Assay type: in vivo
Procedure: After food was solidified, a mixture of experimental and control embryos (at a 1:2 ratio based on expected Mendelian ratios) were aliquoted into each drug/food tube (15 μl/tube). […] Embryos for drug screening were generated from the following cross in cages: w/Y; UAS-006.1; UAS ago^RNAi UAS-apc^RNAi/Stub-gal80-T Xw UAS-dicer2; +; byn-gal4 UAS-GFP tub-gal80^ts/TM6, Hu, Tb. Embryos were obtained from each cage for 4-5 consecutive days by providing daily a fresh apple juice plate with yeast paste. Egg lays were performed at 22° C. to minimize transgene expression during embryogenesis to prevent embryonic defects or lethality that could not potentially be rescued by drug feeding. After embryos were aliquoted, drug tubes were transferred to 25° C. to induce transgene expression. After 2 weeks, the number of surviving experimental pupae (EP) were counted in each tube.
DMSO and Trametinib alone served as controls. […] Statistical analysis was performed as described above.

[1] = drug screened in combination with trametinib
[2] = drug screened in combination with trametinib, mean of 8 replicates

Compound	EP (raw experimental pupae numbers), replicate 1 [1]	EP (raw experimental pupae numbers), replicate 2 [1]	EP (raw experimental pupae numbers), replicate 3 [1]	EP (raw experimental pupae numbers), replicate 4 [1]	EP (raw experimental pupae numbers), replicate 5 [1]	EP (raw experimental pupae numbers), replicate 6 [1]	EP (raw experimental pupae numbers), replicate 7 [1]	EP (raw experimental pupae numbers), replicate 8 [1]	EP mean (in vivo)	EP mean [2]
CCC[C@@H]1CC(=O)N([C@@H](CC)C(N)=O)C1 [brivaracetam]	0	0	2	0	2	1	1	1	0.875	
CCOC(=O)C1=C(COCCN)NC(C)=C(C(=O)OC)C1c1ccccc1Cl (centres unmarked) [amlodipine besylate]	0	0	0	1	1	0	0	0		
OC[C@H]1O[C@@H](c2ccc(Cl)c(Cc3ccc(O[C@H]4CCOC4)cc3)c2)[C@H](O)[C@@H](O)[C@@H]1O [empagliflozin]	4	0	0	2	5	2	1	2		2
CC(C)C[C@H](NC(=O)CNC(=O)c1cc(Cl)ccc1Cl)B(O)O [ixazomib]	1	1	1	0	1	2	0	0		0.75
Fc1ccc([C@@H]2CCNC[C@H]2COc2ccc3c(c2)OCO3)cc1 [paroxetine HCl]	0	0	0	0	1	2	0	1		0.5
CC1Cc2ccccc2N1NC(=O)c1ccc(Cl)c(S(N)(=O)=O)c1 (centres unmarked) [indapamide]	0	0	1	0	2	2	0	4		1.125
O=c1ccc2ccc(OCCCCN3CCN(c4cccc5sccc45)CC3)cc2[nH]1 [brexpiprazole]	0	0	1	1	2	0	3	1		1
Cc1cnc(C(=O)O)c[n+]1[O-] [acipimox]	0	1	0	1	1	1	0	4		1
NC(N)=Nc1nc(CSCCC(N)=NS(N)(=O)=O)cs1 [famotidine]	0	0	0	0	1	2	0	2	0.625	
CN1Cc2c(N)cccc2C(c2ccccc2)C1 (centres unmarked) [nomifensine maleate]	0	0	0	0	1	4	0	1		0.75
CN(C)C(=N)N=C(N)N [metformin HCl]	0	0	0	1	1	0	2	2	0.75	
Cc1ccc(-n2nccn2)c(C(=O)N2CCN(c3nc4cc(Cl)ccc4o3)CC[C@H]2C)c1 [suvorexant]	0	0	3	1	5	1	1	3	1.75	
CN(C)CCCN1c2ccccc2Sc2ccc(Cl)cc21.Cl [chloipromazine HCl]	0	1	1	1	1	2	0	3	1.125	
O=C1CCc2ccc(OCCCCN3CCN(c4cccc(Cl)c4Cl)CC3)cc2N1 [aripiprazole]	0	0	1	0	0	2	1	2		0.75
CNS(=O)(=O)Cc1ccc2[nH]cc(CCN(C)C)c2c1 [sumatriptan succinate]	0	0	1	1	1	1	1	1		0.75
C[C@@H]1CCN(C(=O)CC#N)C[C@@H]1N(C)c1ncnc2[nH]ccc12 [tofacitinib]	1	0	1	0	2	1	0	0		0.625
CN[C@@H]1[C@@H](O)[C@@H](O[C@@H]2[C@@H](O)[C@H](O[C@H]3OC(CN)=CC[C@H]3N)[C@@H](N)C[C@H]2N)OC[C@]1(C)O [sisomicin]	1	1	1	1	2	1	0	0		0.875
CC(C(=O)O)c1ccc2c(c1)Cc1cccnc1O2 (centres unmarked) [pranaprofen]	0	1	1	1	1	3	1	3		1.375
CNCCC(Oc1ccc(C(F)(F)F)cc1)c1ccccc1 (centres unmarked) [fluoxetine]	2	2	0	0	7	1	0	1	1.625	
Cc1ccc(C)c(OCCCC(C)(C)C(=O)O)c1 [gemfibrozil]	0	1	0	0	3	0	0	0		0.5
